In article PMC3756528 (Biochemistry, 2013):

Key:
RsTSPO [1] = biological target: T1, RsTSPO (Cereibacter sphaeroides, UniProt Q9RFC8); experiment: Tryptophan fluorescence quenching binding assay, purified wild-type RsTSPO; design: species or system Rhodobacter sphaeroides; conditions: for quenching of the tryptophan fluorescence: compared to that of PpIX
T1 sequence (Q9RFC8 1-158): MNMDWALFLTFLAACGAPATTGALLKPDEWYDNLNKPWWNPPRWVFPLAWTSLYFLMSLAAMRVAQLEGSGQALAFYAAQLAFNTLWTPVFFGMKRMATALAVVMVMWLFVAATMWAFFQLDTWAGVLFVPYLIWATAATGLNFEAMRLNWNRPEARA

RsTSPOW38C = biological target: T2, RsTSPOW38C (Cereibacter sphaeroides, UniProt Q9RFC8, W38C); experiment: Tryptophan fluorescence quenching binding assay, purified RsTSPOW38C mutant; design: species or system Rhodobacter sphaeroides; conditions: for decrease in binding affinity by the W38C mutation: RsTSPOW38C versus wild-type RsTSPO
T2 sequence (Q9RFC8 1-158 W38C): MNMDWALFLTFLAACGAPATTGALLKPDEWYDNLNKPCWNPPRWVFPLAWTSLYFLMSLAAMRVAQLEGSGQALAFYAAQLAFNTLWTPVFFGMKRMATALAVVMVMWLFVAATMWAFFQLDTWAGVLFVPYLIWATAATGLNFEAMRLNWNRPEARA

RsTSPO [2] = biological target: T1, RsTSPO; conditions: cited from earlier work
RsTSPO [3] = biological target: T1, RsTSPO; experiment: Competition binding assay of PpIX, PK11195 and cholesterol with purified RsTSPO; design: species or system Rhodobacter sphaeroides
SEC = biological target: the molecule itself; experiment: SEC

For `NCC(=O)CCC(=O)O` [ALA, δ-aminolevulinic acid], the “quenching of the tryptophan fluorescence” value (RsTSPO [1]) was “only a small quenching”.

Work on `CC(C)CCC[C@@H](C)[C@H]1CC[C@H]2[C@@H]3CC=C4C[C@@H](O)CC[C@]4(C)[C@H]3CC[C@]12C` [Cholesterol] yielded a Kd (RsTSPOW38C; Kapp to RsTSPOW38C, estimated from half-maximal quenching) of ~200 µM and a Kd (RsTSPO [1]; Kapp to RsTSPO, estimated from half-maximal quenching) of ~80 µM.

For `CCC(C)N(C)C(=O)c1cc2ccccc2c(-c2ccccc2Cl)n1` (stereo not drawn) [PK11195], the “decrease in binding affinity by the W38C mutation” value (RsTSPOW38C) is given as 3 fold and the “binding of PK11195 to wild-type RsTSPO” value (RsTSPO [2]) is given as “no binding affinity above background”.

With `C=CC1=C(C)c2cc3[nH]c(cc4nc(cc5[nH]c(cc1n2)c(C)c5CCC(=O)O)C(CCC(=O)O)=C4C)c(C)c3C=C` [PpIX, Protoporphyrin IX] the “decrease in binding affinity by the W38C mutation” value (RsTSPOW38C) was 6 fold, the “increase in the Kd of PpIX” value (RsTSPO [3]; RsTSPO preincubated with 20 μM PK11195) was ~3 fold and the “increase in the Kd of PpIX” value (RsTSPO [3]; RsTSPO preincubated with 20 μM PK11195 and 50 μM cholesterol together) was ~4 fold. For the same molecule, the “maximal quenching of tryptophan fluorescence” value (RsTSPO [1]; Rs- and HsTSPO, 290 to 400 nm) was ~100%.

For `C[C@H](CCC(=O)O)[C@H]1CC[C@H]2[C@@H]3[C@@H](O)C[C@@H]4C[C@H](O)CC[C@]4(C)[C@H]3CC[C@]12C` [ursodeoxycholate], the “affinity for RsTSPO” value (RsTSPO [1]) was “no detectable affinity” and the “quenching of the tryptophan fluorescence” value (RsTSPO [1]) was “only a small quenching”.

B1: RsTSPOW38C, W38C mutant of Translocator Protein 18 kDa from Rhodobacter sphaeroides (natural protein, UniProt Q9RFC8 1-158, looked up)
chain: MNMDWALFLTFLAACGAPATTGALLKPDEWYDNLNKPCWNPPRWVFPLAWTSLYFLMSLAAMRVAQLEGSGQALAFYAAQLAFNTLWTPVFFGMKRMATALAVVMVMWLFVAATMWAFFQLDTWAGVLFVPYLIWATAATGLNFEAMRLNWNRPEARA
B1: binds (SEC).
